How the values were obtained:
[1] = tested on: Botryotinia fuckeliana syn. Botrytis cinerea; assay: Botryotinia fuckeliana syn. Botrytis cinerea (gray mould), liquid culture growth inhibition; assay type: cell-based; settings: PDB nutrient broth, 24° C., 72 hrs, photometric, vs untreated control
Procedure: (§1) Conidia of the fungus from cryogenic storage were directly mixed into nutrient broth (PDB potato dextrose broth). A DMSO solution of the test compounds was placed into a microtiter plate (96-well format) and the nutrient broth containing the fungal spores was added to it. The test plates were incubated at 24° C. and the inhibition of growth was determined photometrically after 72 hrs.

[2] = tested on: Botryotinia fuckeliana syn. Botrytis cinerea; assay: Botryotinia fuckeliana syn. Botrytis cinerea (grey mold on tomato), tomato plants; assay type: in vivo; settings: tomato plants cv. Roter Gnom, inoculated two days after application, leaf area covered by disease 5-6 days after application
Procedure: 4-week old tomato plants cv. Roter Gnom are treated sprayed in a spray chamber with the formulated test compound diluted in water. The test plants are inoculated by spraying them with a spore suspension two days after application. The inoculated test plants are incubated at 20° C. and 95% rh in a greenhouse and the percentage leaf area covered by disease is assessed when an appropriate level of disease appears on untreated check plants (5-6 days after application).

[3] = tested on: Glomerella lagenarium syn Colletotrichum lagenarium; assay: Glomerella lagenarium syn. Colletotrichum lagenarium (anthracnose), liquid culture growth inhibition; assay type: cell-based; settings: Colletotrichum orbiculare, PDB nutrient broth, 24° C., 72 hrs, 620 nm, vs untreated control
Procedure: as §1, with “hrs at 620 nm.” for “hrs.”

[4] = tested on: Monographella nivalis syn. Microdochium nivale, Fusarium nivale; assay: Monographella nivalis syn. Microdochium nivale (snow mould, foot rot), liquid culture growth inhibition; assay type: cell-based; settings: PDB nutrient broth, 24° C., 72 hrs, 620 nm, vs untreated control
Procedure: as §1, with “hrs at 620 nm.” for “hrs.”

Structure (SMILES)	inhibition of growth at 20 ppm [1]	pest or weed control at 200 ppm [2]	inhibition of growth at 20 ppm [3]	inhibition of growth at 20 ppm [4]
Cc1cccc(Oc2cnc(Cl)cc2C(=O)NCCc2ccc(Cl)cc2Cl)c1 [Compound 1.4, 2-chloro-N-[2-(2,4-dichlorophenyl)ethyl]-5-(3-methylphenoxy)pyridine-4-carboxamide]	≥ 80%	≥ 50%	–	–
O=C(NCC(F)c1ccc(Cl)cc1Cl)c1c(F)cncc1Oc1cccc(C2CC2)c1 (centres unmarked) [Compound 1.6, 3-(3-cyclopropyl-phenoxy)-N-[2-(2,4-dichlorophenyl)-2-fluoro-ethyl]-5-fluoro-pyridine-4-carboxamide]	≥ 80%	≥ 50%	≥ 80%	–
O=C(NCC(F)c1ccc(Cl)cc1Cl)c1cc(C(F)(F)F)ncc1Oc1cccc(C2CC2)c1 (centres unmarked) [Compound 1.9, 5-(3-cyclopropyl-phenoxy)-N-[2-(2,4-dichlorophenyl)-2-fluoro-ethyl]-2-(trifluoromethyl) pyridine-4-carboxamide]	≥ 80%	≥ 50%	≥ 80%	–
CS(=O)(=O)c1cc(C(=O)NCC(F)c2ccc(Cl)cc2Cl)c(Oc2cccc(C3CC3)c2)cn1 (centres unmarked) [Compound 1.10, 5-(3-cyclopropyl-phenoxy)-N-[2-(2,4-dichlorophenyl)-2-fluoro-ethyl]-2-methylsulfonyl-pyridine-4-carboxamide]	≥ 80%	≥ 50%	≥ 80%	–
O=C(NCC(F)c1ccc(Cl)cc1Cl)c1ccncc1Oc1cccc(C2CC2)c1 (centres unmarked) [Compound 1.11, 3-(3-cyclopropyl-phenoxy)-N-[2-(2,4-dichlorophenyl)-2-fluoro-ethyl]pyridine-4-carboxamide]	–	≥ 50%	≥ 80%	–
O=C(NCCc1ccc(Cl)cc1Cl)c1cc(Cl)ncc1Oc1cccc(C2CC2)c1 [Compound 1.15, 2-chloro-5-(3-cyclopropyl-phenoxy)-N-[2-(2,4-dichlorophenyl)ethyl]pyridine-4-carboxamide]	≥ 80%	≥ 50%	≥ 80%	–
O=C(NCC(F)c1ccc(Cl)cc1Cl)c1cc(Cl)ncc1Oc1cccc(C2CC2)c1 (centres unmarked) [Compound 1.16, 2-chloro-5-(3-cyclopropyl-phenoxy)-N-[2-(2,4-dichlorophenyl)-2-fluoro-ethyl]pyridine-4-carboxamide]	≥ 80%	≥ 50%	≥ 80%	–
O=C(NCCc1ccc(Cl)cc1Cl)c1c(Cl)cncc1Oc1cccc(C2CC2)c1 [Compound 1.21, 3-chloro-5-(3-cyclopropyl-phenoxy)-N-[2-(2,4-dichlorophenyl)ethyl]pyridine-4-carboxamide]	≥ 80%	≥ 50%	≥ 80%	–
O=C(NCC(F)c1ccc(Cl)cc1Cl)c1cc(C2CC2)ncc1Oc1cccc(C2CC2)c1 (centres unmarked) [Compound 1.22, 2-cyclopropyl-5-(3-cyclopropyl-phenoxy)-N-[2-(2,4-dichlorophenyl)-2-fluoro-ethyl]pyridine-4-carboxamide]	≥ 80%	≥ 50%	≥ 80%	–
O=C(NCC1(c2ccc(F)cc2)CCC1)c1cc(Cl)ncc1Oc1cccc(C2CC2)c1 [Compound 1.28, 2-chloro-5-(3-cyclopropyl-phenoxy)-N-[[1-(4-fluorophenyl)cyclobutyl]methyl] pyridine-4-carboxamide]	–	–	–	≥ 80%
COc1ccc(CCNC(=O)c2cc(Cl)ncc2Oc2cccc(C3CC3)c2)cc1 [Compound 1.35, 2-chloro-5-(3-cyclopropyl-phenoxy)-N-[2-(4-methoxyphenyl)ethyl]pyridine-4-carboxamide]	≥ 80%	≥ 50%	≥ 80%	–
Cc1ccccc1CCNC(=O)c1cc(Cl)ncc1Oc1cccc(C2CC2)c1 [Compound 1.36, 2-chloro-5-(3-cyclopropyl-phenoxy)-N-[2-(o-tolyl)ethyl]pyridine-4-carboxamide]	–	–	–	≥ 80%
C#Cc1cccc(Oc2cnc(C)cc2C(=O)NCC(F)c2ccc(C)cc2C)c1 (centres unmarked) [Compound 1.38, N-[2-(2,4-dimethylphenyl)-2-fluoro-ethyl]-5-(3-ethynylphenoxy)-2-methyl-pyridine-4-carboxamide]	≥ 80%	≥ 50%	–	–
C#Cc1cccc(Oc2cnc(Br)cc2C(=O)NCC(F)c2ccc(C)cc2C)c1 (centres unmarked) [Compound 1.43, 2-bromo-N-[2-(2,4-dimethylphenyl)-2-fluoro-ethyl]-5-(3-ethynylphenoxy) pyridine-4-carboxamide]	≥ 80%	≥ 50%	≥ 80%	–
COc1ccc(CCNC(=O)c2cc(Cl)ncc2Oc2ccccc2)cc1OC [Compound 1.44, 2-chloro-N-[2-(3,4-dimethoxyphenyl)ethyl]-5-phenoxy-pyridine-4-carboxamide]	–	–	–	≥ 80%
O=C(NC1(Cc2ccccc2)CC1)c1cc(Cl)ncc1Oc1cccc(C2CC2)c1 [Compound 1.49, N-(1-benzylcyclopropyl)-2-chloro-5-(3-cyclopropylphenoxy) pyridine-4-carboxamide]	–	–	–	≥ 80%
Cc1cc(C)cc(CCNC(=O)c2cc(Cl)ncc2Oc2cccc(C3CC3)c2)c1 [Compound 1.50, 2-chloro-5-(3-cyclopropylphenoxy)-N-[2-(3,5-dimethylphenyl)ethyl]pyridine-4-carboxamide]	–	–	–	≥ 80%
O=C(NCC(F)c1ccc(F)cc1F)c1cc(Cl)ncc1Oc1cccc(C2CC2)c1 (centres unmarked) [Compound 1.58, 2-chloro-5-(3-cyclopropyl-phenoxy)-N-[2-(2,4-difluorophenyl)-2-fluoro-ethyl]pyridine-4-carboxamide]	≥ 80%	≥ 50%	≥ 80%	–
COc1cccc(Oc2cnc(Cl)cc2C(=O)NCC(F)c2ccc(Cl)cc2Cl)c1 (centres unmarked) [Compound 1.61, 2-chloro-N-[2-(2,4-dichlorophenyl)-2-fluoro-ethyl]-5-(3-methoxyphenoxy) pyridine-4-carboxamide]	≥ 80%	≥ 50%	≥ 80%	–
CCc1ccc(C(F)CNC(=O)c2cc(Cl)ncc2Oc2cccc(C3CC3)c2)c(F)c1 (centres unmarked) [Compound 1.80, 2-chloro-5-(3-cyclopropyl-phenoxy)-N-[2-(4-ethyl-2-fluoro-phenyl)-2-fluoro-ethyl]pyridine-4-carboxamide]	≥ 80%	≥ 50%	≥ 80%	–
C#Cc1ccc(C(F)CNC(=O)c2cc(Cl)ncc2Oc2cccc(C3CC3)c2)c(F)c1 (centres unmarked) [Compound 1.82, 2-chloro-5-(3-cyclopropyl-phenoxy)-N-[2-(4-ethynyl-2-fluoro-phenyl)-2-fluoro-ethyl]pyridine-4-carboxamide]	≥ 80%	≥ 50%	≥ 80%	–
COc1cncc(Oc2cccc(C3CC3)c2)c1C(=O)NCC(F)c1ccc(Cl)cc1Cl (centres unmarked) [Compound 1.91, 3-(3-cyclopropyl-phenoxy)-N-[2-(2,4-dichlorophenyl)-2-fluoro-ethyl]-5-methoxy-pyridine-4-carboxamide]	≥ 80%	≥ 50%	≥ 80%	–
